{"source": "ChEMBL document CHEMBL5131401", "about": "“Structural Basis for Developing Multitarget Compounds Acting on Cysteinyl Leukotriene Receptor 1 and G-Protein-Coupled Bile Acid Receptor 1” (J Med Chem, 2021)", "key": {"[1]": {"experiment": "Lipophilicity, logD of the compound in octanol and phosphate buffer at pH 7.4 incubated for 2 hrs under shaking condition by LC-MS/MS analysis", "format": "physicochemical"}, "[2]": {"experiment": "Aqueous solubility of compound in pH 7.4 PBS buffer measured after 24 hrs by LC-MS/MS analysis", "format": "physicochemical"}, "[3]": {"experiment": "Metabolic stability in human liver microsomes assessed as half life at 1 uM measured up to 60 mins in presence of NADPH by LC-MS/MS analysis", "format": "ADME, Microsome", "settings": "for half-life at 1 µM: liver microsomes"}, "[4]": {"experiment": "Metabolic stability in human liver S9 fraction assessed as half life at 1 uM measured after 2 hrs in presence of NADPH by LC-MS/MS analysis", "format": "ADME, subcellular"}}}
{"smiles": "O=C(O)c1cccc(OCc2ccc3ccccc3n2)c1", "values": [{"measurement": "logD at 2 h", "setting": "[1]", "result": 0.12}, {"measurement": "solubility at 24 h", "setting": "[2]", "result": "> 200", "unit": "µM"}]}
{"smiles": "CCC(C)COc1cccc(OCc2ccc3ccccc3n2)c1", "note": "(stereo not drawn)", "values": [{"measurement": "logD at 2 h", "setting": "[1]", "result": 1.01}, {"measurement": "solubility at 24 h", "setting": "[2]", "result": 3.5, "unit": "µM"}, {"measurement": "half-life at 1 µM", "setting": "[3]", "result": 22.3, "unit": "min"}]}
{"smiles": "OCc1cccc(OCc2ccc3ccccc3n2)c1", "values": [{"measurement": "half-life at 1 µM", "setting": "[4]", "result": 119, "unit": "min"}, {"measurement": "logD at 2 h", "setting": "[1]", "result": 2.8}, {"measurement": "solubility at 24 h", "setting": "[2]", "result": 141, "unit": "µM"}, {"measurement": "half-life at 1 µM", "setting": "[3]", "result": 48, "unit": "min"}]}
{"smiles": "CCCCCC(O)c1cccc(OCc2ccc3ccccc3n2)c1", "note": "(stereo not drawn) [REV-5901]", "values": [{"measurement": "half-life at 1 µM", "setting": "[4]", "result": 57, "unit": "min"}, {"measurement": "logD at 2 h", "setting": "[1]", "result": 3.1}, {"measurement": "solubility at 24 h", "setting": "[2]", "result": 39.3, "unit": "µM"}, {"measurement": "t1/2", "setting": "[3]; microsomes, 1 h, 1 µM", "result": 37, "unit": "h"}]}
